According to patent US20140243334A1, “SUBSTITUTED HYDOXAMIC ACIDS AND USES THEREOF” (Millennium Pharmaceuticals, Inc., priority 2010, published 2014):

Target: T1, purified human HDAC6 (Homo sapiens, UniProt Q9UBN7)
T1 construct: purchased BPS Bioscience 5006
T1 sequence (Q9UBN7 1-1215): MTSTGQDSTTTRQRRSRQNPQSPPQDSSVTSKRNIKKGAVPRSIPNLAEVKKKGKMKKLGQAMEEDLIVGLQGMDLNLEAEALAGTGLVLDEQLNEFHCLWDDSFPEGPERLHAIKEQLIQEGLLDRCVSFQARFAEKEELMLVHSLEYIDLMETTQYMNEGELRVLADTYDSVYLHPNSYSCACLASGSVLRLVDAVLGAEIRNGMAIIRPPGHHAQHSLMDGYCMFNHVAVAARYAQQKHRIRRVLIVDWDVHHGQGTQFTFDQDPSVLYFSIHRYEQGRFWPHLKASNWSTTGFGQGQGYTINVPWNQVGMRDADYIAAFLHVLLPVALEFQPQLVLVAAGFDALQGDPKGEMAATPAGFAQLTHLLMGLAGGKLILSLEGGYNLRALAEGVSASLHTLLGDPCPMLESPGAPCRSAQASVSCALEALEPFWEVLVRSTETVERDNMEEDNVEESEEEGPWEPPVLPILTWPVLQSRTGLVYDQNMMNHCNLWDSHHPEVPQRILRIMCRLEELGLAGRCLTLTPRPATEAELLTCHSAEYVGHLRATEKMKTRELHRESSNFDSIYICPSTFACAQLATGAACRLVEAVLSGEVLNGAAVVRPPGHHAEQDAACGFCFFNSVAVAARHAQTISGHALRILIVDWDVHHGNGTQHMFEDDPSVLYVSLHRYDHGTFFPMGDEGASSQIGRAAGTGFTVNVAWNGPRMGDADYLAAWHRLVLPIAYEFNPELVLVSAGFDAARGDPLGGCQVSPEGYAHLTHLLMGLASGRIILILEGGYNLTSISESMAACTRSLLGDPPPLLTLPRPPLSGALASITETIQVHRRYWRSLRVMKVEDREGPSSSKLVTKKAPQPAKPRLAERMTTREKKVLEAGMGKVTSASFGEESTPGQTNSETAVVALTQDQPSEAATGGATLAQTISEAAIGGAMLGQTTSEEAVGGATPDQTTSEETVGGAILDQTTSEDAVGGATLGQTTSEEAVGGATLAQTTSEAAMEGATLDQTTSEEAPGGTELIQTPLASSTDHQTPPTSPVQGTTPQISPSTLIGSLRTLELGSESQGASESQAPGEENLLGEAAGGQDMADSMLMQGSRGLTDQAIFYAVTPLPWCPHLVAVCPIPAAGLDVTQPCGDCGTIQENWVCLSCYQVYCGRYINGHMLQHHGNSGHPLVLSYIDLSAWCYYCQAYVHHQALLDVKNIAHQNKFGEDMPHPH
Test: HDAC6 Enzyme Assay
Type: biochemical
Conditions: HDAC6 inhibition at a compound concentration of 0.412 μM; read-out: Percent Inhibition at 0.412 μM
Protocol: To measure the inhibition of HDAC6 activity, purified human HDAC6 (BPS Bioscience; Cat. No. 5006) is incubated with substrate Ac-Arg-Gly-Lys(Ac)-AMC peptide (Bachem Biosciences; Cat. No. I-1925) for 1 hour at 30° C. in the presence of test compounds or vehicle DMSO control. The reaction is stopped with the HDAC inhibitor trichostatin A (Sigma; Cat. No. T8552) and the amount of Arg-Gly-Lys-AMC generated is quantitated by digestion with trypsin (Sigma; Cat. No. T1426) and subsequent measurement of the amount of AMC released using a fluorescent plate reader (Pherastar; BMG Technologies) set at Ex 340 nm and Em 460 nm. Concentration response curves are generated by calculating the fluorescence increase in test compound-treated samples relative to DMSO-treated controls, and enzyme inhibition (IC50) values are determined from those curves.

Row | Structure (SMILES) | inhibition at 0.412 µM [%]
1 | O=C(NO)C1CCc2ccc(OCc3ccncc3)cc2C1 (centres unmarked) [Compound I-5, N-hydroxy-7-(pyridin-4-ylmethoxy)-1,2,3,4-tetrahydronaphthalene-2-carboxamide] | 58
2 | CC(C)(C)OC(=O)Nc1ccc(Oc2ccc3c(c2)CC(C(=O)NO)CC3)cc1 (centres unmarked) [Compound I-52, tert-butyl [4-({7-[(hydroxyamino)carbonyl]-5,6,7,8-tetrahydronaphthalen-2-yl}oxy)phenyl]carbamate] | 74
3 | O=C(Nc1cc(Oc2ccc3c(c2)C[C@@H](C(=O)NO)CC3)ccn1)C1CC1 [Compound I-2, (2S)-7-({2-[(cyclopropylcarbonyl)amino]pyridin-4-yl}oxy)-N-hydroxy-1,2,3,4-tetrahydronaphthalene-2-carboxamide] | 90
4 | O=C(NO)C1CCc2ccc(OCc3ccccc3)cc2C1 (centres unmarked) [Compound I-6, 7-(benzyloxy)-N-hydroxy-1,2,3,4-tetrahydronaphthalene-2-carboxamide] | 53
5 | O=C(NO)C1CCc2ccccc2C1 (centres unmarked) [Compound I-3, N-hydroxy-1,2,3,4-tetrahydronaphthalene-2-carboxamide] | 33
6 | COc1ccc(C(=O)Nc2ccc3c(c2)CC(C(=O)NO)CC3)cc1 (centres unmarked) [Compound I-29, N-hydroxy-7-[(4-methoxybenzoyl)amino]-1,2,3,4-tetrahydronaphthalene-2-carboxamide] | 81
7 | CC(C)(C)OC(=O)Nc1ccc2c(c1)CC(C(=O)NO)CC2 (centres unmarked) [Compound I-20, tert-butyl {7-[(hydroxyamino)carbonyl]-5,6,7,8-tetrahydronaphthalen-2-yl}carbamate] | 61
8 | O=C(NC1CC1)c1cccc(-c2ccc3c(c2)CC(C(=O)NO)CC3)c1 (centres unmarked) [Compound I-51, 7-{3-[(cyclopropylamino)carbonyl]phenyl}-N-hydroxy-1,2,3,4-tetrahydronaphthalene-2-carboxamide] | 88
9 | O=C(NO)C1CCc2ccc(Oc3ccc(NCc4ccc(Cl)cc4)cc3)cc2C1 (centres unmarked) [Compound I-73, 7-{4-[(4-chlorobenzyl)amino]phenoxy}-N-hydroxy-1,2,3,4-tetrahydronaphthalene-2-carboxamide] | 64
10 | O=C(NO)C1CCc2ccc(Oc3cccc(NC(=O)C4CC4)c3)cc2C1 (centres unmarked) [Compound I-50, 7-{3-[(cyclopropylcarbonyl)amino]phenoxy}-N-hydroxy-1,2,3,4-tetrahydronaphthalene-2-carboxamide] | 84
11 | O=C(NO)C1CCc2ccc(Oc3ccncc3)cc2C1 (centres unmarked) [Compound I-12, N-hydroxy-7-(pyridin-4-yloxy)-1,2,3,4-tetrahydronaphthalene-2-carboxamide] | 61
12 | CNC(=O)c1cc(F)cc(-c2ccc3c(c2)CC(C(=O)NO)CC3)c1 (centres unmarked) [Compound I-100, 7-{3-fluoro-5-[(methylamino)carbonyl]phenyl}-N-hydroxy-1,2,3,4-tetrahydronaphthalene-2-carboxamide] | 84
13 | CN(C)c1ccc2c(c1)CC(C(=O)NO)CC2 (centres unmarked) [Compound I-40, 7-(dimethylamino)-N-hydroxy-1,2,3,4-tetrahydronaphthalene-2-carboxamide] | 46
14 | O=C(NO)C1CCc2ccc(-c3ccc(F)c(C(=O)N4CCCC4)c3)cc2C1 (centres unmarked) [Compound I-113, 7-[4-fluoro-3-(pyrrolidin-1-ylcarbonyl)phenyl]-N-hydroxy-1,2,3,4-tetrahydronaphthalene-2-carboxamide] | 89

Other lines, results leading:

Row | inhibition at 0.412 µM [%] | Structure (SMILES)
15 | 74 | O=C(NO)C1CCc2ccc(-c3ccc(Cl)cc3)cc2C1 (centres unmarked) [Compound I-71, 7-(4-chlorophenyl)-N-hydroxy-1,2,3,4-tetrahydronaphthalene-2-carboxamide]
16 | 85 | O=C(NO)C1CCc2ccc(-c3ccc4c(c3)CCO4)cc2C1 (centres unmarked) [Compound I-90, 7-(2,3-dihydro-1-benzofuran-5-yl)-N-hydroxy-1,2,3,4-tetrahydronaphthalene-2-carboxamide]
17 | 79 | COc1ccc(-c2ccc3c(c2)CC(C(=O)NO)CC3)cc1 (centres unmarked) [Compound I-69, N-hydroxy-7-(4-methoxyphenyl)-1,2,3,4-tetrahydronaphthalene-2-carboxamide]
18 | 78 | O=C(NO)C1CCc2ccc(-c3ccc([N+](=O)[O-])cc3)cc2C1 (centres unmarked) [Compound I-104, N-hydroxy-7-(4-nitrophenyl)-1,2,3,4-tetrahydronaphthalene-2-carboxamide]
19 | 86 | CC(=O)Nc1cccc(-c2ccc3c(c2)CC(C(=O)NO)CC3)c1 (centres unmarked) [Compound I-24, 7-[3-(acetylamino)phenyl]-N-hydroxy-1,2,3,4-tetrahydronaphthalene-2-carboxamide]
20 | 72 | O=C(NO)C1CCc2ccc(-c3ccoc3)cc2C1 (centres unmarked) [Compound I-103, 7-(3-furyl)-N-hydroxy-1,2,3,4-tetrahydronaphthalene-2-carboxamide]
21 | 82 | COc1ccc(-c2ccc3c(c2)CC(C(=O)NO)CC3)cc1F (centres unmarked) [Compound I-101, 7-(3-fluoro-4-methoxyphenyl)-N-hydroxy-1,2,3,4-tetrahydronaphthalene-2-carboxamide]
22 | 82 | O=C(NO)C1CCc2ccc(-c3cc4ccccc4[nH]3)cc2C1 (centres unmarked) [Compound I-54, N-hydroxy-7-(1H-indol-2-yl)-1,2,3,4-tetrahydronaphthalene-2-carboxamide]
23 | 82 | COc1ccc(-c2ccc3c(c2)CC(C(=O)NO)CC3)cc1OC (centres unmarked) [Compound I-109, 7-(3,4-dimethoxyphenyl)-N-hydroxy-1,2,3,4-tetrahydronaphthalene-2-carboxamide]
24 | 55 | CC(C)(C#N)c1ccc(-c2ccc3c(c2)CC(C(=O)NO)CC3)cc1 (centres unmarked) [Compound I-120, 7-[4-(1-cyano-1-methylethyl)phenyl]-N-hydroxy-1,2,3,4-tetrahydronaphthalene-2-carboxamide]
25 | 86 | CCOc1cccc(-c2ccc3c(c2)CC(C(=O)NO)CC3)c1 (centres unmarked) [Compound I-107, 7-(3-ethoxyphenyl)-N-hydroxy-1,2,3,4-tetrahydronaphthalene-2-carboxamide]
26 | 85 | O=C(NO)C1CCc2ccc(-c3cnc4[nH]ccc4c3)cc2C1 (centres unmarked) [Compound I-87, N-hydroxy-7-(1H-pyrrolo[2,3-b]pyridin-5-yl)-1,2,3,4-tetrahydronaphthalene-2-carboxamide]
27 | 66 | CC(C)Oc1ccc(-c2ccc3c(c2)CC(C(=O)NO)CC3)cc1 (centres unmarked) [Compound I-89, N-hydroxy-7-(4-isopropoxyphenyl)-1,2,3,4-tetrahydronaphthalene-2-carboxamide]
28 | 77 | O=C(NO)C1CCc2ccc(-c3ccc4nonc4c3)cc2C1 (centres unmarked) [Compound I-91, 7-(2,1,3-benzoxadiazol-5-yl)-N-hydroxy-1,2,3,4-tetrahydronaphthalene-2-carboxamide]
29 | 89 | O=C(NO)C1CCc2ccc(-c3ccc4[nH]cnc4c3)cc2C1 (centres unmarked) [Compound I-81, 7-(1H-benzimidazol-5-yl)-N-hydroxy-1,2,3,4-tetrahydronaphthalene-2-carboxamide]
30 | 74 | Cc1ccc(C)c(-c2ccc3c(c2)CC(C(=O)NO)CC3)c1 (centres unmarked) [Compound I-111, 7-(2,5-dimethylphenyl)-N-hydroxy-1,2,3,4-tetrahydronaphthalene-2-carboxamide]
31 | 75 | O=C(NO)C1CCc2ccc(-c3cccnc3)cc2C1 (centres unmarked) [Compound I-60, N-hydroxy-7-pyridin-3-yl-1,2,3,4-tetrahydronaphthalene-2-carboxamide]
32 | 67 | CN(C)c1ccc(-c2ccc3c(c2)CC(C(=O)NO)CC3)cc1 (centres unmarked) [Compound I-92, 7-[4-(dimethylamino)phenyl]-N-hydroxy-1,2,3,4-tetrahydronaphthalene-2-carboxamide]
